By inhibition in vivo is commonly meant the relative decrease from the control value, in per cent.

Experiment [1] deals with Carrageenin induced thermal hyperalgesia in the rat. The experiment in a line: Carrageenin induced hyperalgesia, rat paw pressure test. The class given is in vivo. As to conditions: po, 30 mg/kg p.o., 2 h post dose, MPE = maximum possible effect, baseline value prior to carrageenin. The protocol: (§1) In another test, compounds were evaluated for their ability to reduce the hyperalgesia effects of carrageenin in the following assay: nociceptive pressure thresholds were measured in the rat paw pressure test using an analgesimeter (Randall L. O. and Selitto J. J., A method for measurement of analgesic activity on inflamed tissue. Arch. Int. Pharmacodyn 4: 409-419, 1957). Male Sprague-Dawley rats (70-90 g) were trained on this apparatus before the test day. Pressure was gradually applied to the hind paw of each rat Nociceptive thresholds were determined as the pressure (g) required to elicit paw withdrawal. A cutoff point of 250 g was used to prevent any tissue damage to the paw. On the test day, 2 to 3 baseline measurements were taken before animals were administered 100 μl of 2% aqueous carrageenin by intraplantar injection into the right hind paw. […]

Experiment [2] has as its system Carrageenin induced hyperalgesia in the rat. Described as above. The class given is in vivo. Particulars: po, 30 mg/kg p.o., 1 h post dose, MPE = maximum possible effect, baseline value prior to carrageenin. The protocol: as §1

For the compound `CCC(=O)N(CCN(CC)CC)c1ccc(Br)c2ccccc12` [Example 3, N-Propionyl, N-(2-Diethylaminoethyl)-1-amino-4-bromonaphthalene], the values for the inhibition in vivo at 30 mg/kg in experiment [1] and in experiment [2] were 7.7% and -2.6%, respectively.

`CCC(=O)N(CCN(CC)CC)c1ccc(Cl)c2ccccc12` [Example 1, N-Propionyl, N-(2-Diethylaminoethyl)-1-amino-4-chloronaphthalene]: the inhibition in vivo at 30 mg/kg was 22.2% in experiment [1] and 51.5% in experiment [2].

`CCC(=O)N(CCN(CC)CC)c1cccc2c1-c1ccccc1C2=O` [Example 2, N-Propionyl, N-(2-Diethylaminoethyl)-4-amino-9-fluorenone]: the results for the inhibition in vivo at 30 mg/kg in experiment [1] and in experiment [2] were 6.4% and 1.1%, respectively.

In the case of `C=CC(=O)N(CCN(CC)CC)c1ccc(Cl)c2ccccc12` [Example 14, N-Acryloyl, N-(2-Diethylaminoethyl)-1-amino-4-chloronaphthalene], the results for the inhibition in vivo at 30 mg/kg in experiment [1] and in experiment [2] were 0.9% and 15.1%, respectively.

Consider `CCC(=O)N(CCN1CCOCC1)c1ccc(Cl)c2ccccc12` [Example 4], for which the inhibition in vivo at 30 mg/kg in experiment [1] is 30.7%; in experiment [2], 44.8%.

For `CCC(=O)N(CCNCc1ccccc1)c1cccc2ccccc12` [Example 12, N-Propionyl, N-(2-(N-benzyl)-aminoethyl)-1-aminonaphthalene], the results for the inhibition in vivo at 30 mg/kg in experiment [1] and in experiment [2] were 3.13% and 29.7%, respectively.

`CCC(=O)N(c1ccc(Cl)c2ccccc12)C(C)CN(CC)CC` (centres unmarked) [Example 5, N-Propionyl, N-(2-(3-diethylamino-propyl))-1-amino-4-chloronaphthalene]: the inhibition in vivo at 30 mg/kg in experiment [1] was 27.5%; in experiment [2] it was 23.3%.

(Values after patent US6846953B1, “Aromatic amides” (Warner Lambert Company, priority 1999, dated 2005).)
